Results on 1 compound are retold here after patent US11111218B2, “Crystalline form of 5-amino-2,3-dihydrophthalazine-1,4-dione” (METRIOPHARM AG, priority 2016, dated 2021).

The conditions of the series: TG-DSC. The source says: Upper trace: Mass loss determined by TG. Lower trace: Heat flow determined by DSC

In the case of `Nc1cccc2c(=O)[nH][nH]c(=O)c12` [Form II, 5-amino-2,3-dihydrophthalazine-1,4-dione], the “thermal stability up to” value (crystalline solid) was “up to 320±1 °C”. The “solid state transformation to other forms” value (until thermal degradation of the crystalline compound sets in) is given as “no solid state transformation to other forms is observed”.
